Results published in patent EP4534577A1, “NON-TOXIC LATENT POLYMERIZATION CATALYSTS FOR POLYURETHANES BASED ON TIN (IV) CHELATE COMPLEXES” (Tech Synt Ltd, priority 2023, dated 2025).

Columns and labels:
[1] = Stability in ambient / moist air (visible change of powder on dry surface); assay type: physicochemical; conditions: for Air stability: powder poured onto a dry surface, left in ambient air
Excerpt: (§1) The alkoxy-based tin complexes (DMAE)2Sn(OtBu)2 and (DMAEIDE)Sn(OtBu)2 were obtained using procedures similar to the synthesis of the phenoxy-complexes. These complexes are stable under dry conditions.
(§2) Of special stability are complexes based on tetradentate Salen and Salan type ligands such as: […]

[2] = Gelation time in polyurethane synthesis model reaction with tin catalyst; conditions: for Catalyst effect 65°C: gel time with no catalyst (2580 seconds) divided by gel time with 0.5 mol % of the catalyst; for Catalyst effect 90C: gel time with no catalyst (750 seconds) divided by gel time with 0.5 mol % of the catalyst; for Latency: latent if gelation did not occur at room temperature for two hours at a catalyst concentration of 1 mol%; for Gelation time In argon t, s (65ºC) / Gelation time On air t, s (65ºC): 65 °C; for Gelation time In argon t, s (90ºC) / Gelation time On air t, s (90ºC): 90 °C
Protocol: A method for using the above-mentioned tin(IV) complexes to produce polyurethane is described in the following. The method consists of adding a solution of the above-mentioned catalyst in an organic solvent (THF) to a two-component mixture at a given temperature. The method is explained by examples of its implementation: Specifically, to a vigorously stirred solution of 4.5 ml (5.1 g, 8.4 mmol) polyethyleneglycol-600 1.35 ml (1.40 g, 8.3 mmol), hexamethylene diisocyanate was added (temperature control was performed by thermostating the reaction mixture at room temperature, 65°C, 90°C before adding the catalyst), and then the solution of the catalyst to be tested in 0.25 ml in THF was added as fast as possible. The flask with the reactants then was put into an oil bath at room temperature, 65°C or 90°C (depending on the experiment), and then time count was started. The end of reaction was defined as the stop of the magnetic stirrer. The time from start to stop is taken as the gelation time. Experiments conducted in air and in an inert gas atmosphere at different temperatures were compared.
The molar concentration of the catalyst is given with respect to the molar amount of the polyisocyanate. Table 1: Gelation time with selected tin catalysts.

[3] = Solubility of catalyst in organic solvents; assay type: physicochemical
[4] = Stability on dissolution in wet organic solvent; assay type: physicochemical; conditions: wet / moist organic solvent
Excerpt: as §1, §2

Row | Compound | Air stability [1] | Catalyst effect 65°C [2] | Catalyst effect 90C [2] | Latency [2] | Solubility Alkanes [3] | Solubility CH2Cl2/CHCl3 [3] | Solubility PhMe [3] | Solubility THF [3] | Decomposition on dissolution in wet organic solvent [4] | Hygroscopicity [1] | Visible change of powder in moist air ([1]; powder poured on a dry surface in moist air) | gel time compared with no catalyst ([2]; 0.1 mol% concentration, under air) | Gelation time In argon t, s (65ºC) ([2]; c 0.1 % mol.) | Gelation time In argon t, s (90ºC) ([2]; c 0.1 % mol.) | Gelation time On air t, s (65ºC) ([2]; c 0.1 % mol.) | Gelation time On air t, s (90ºC) ([2]; c 0.1 % mol.) | Gelation time In argon t, s (65ºC) ([2]; c 1 % mol.) | Gelation time In argon t, s (90ºC) ([2]; c 1 % mol.) | Gelation time On air t, s (65ºC) ([2]; c 1 % mol.) | Gelation time On air t, s (90ºC) ([2]; c 1 % mol.)
1 | CC(C)(C)[O][Sn]1([O]C(C)(C)C)[O]c2c(cc(C(C)(C)C)cc2C(C)(C)C)CN2CCN(CC2)Cc2cc(C(C)(C)C)cc(C(C)(C)C)c2[O]1 | excellent (Excellent stability was attributed to compounds for which no visible change was found within 24 hours) | 5.7 | 2.8 | yes | +- (less than 0.01 mol/L) | +++ (higher than 1.0 mol/L) | +++ (higher than 1.0 mol/L) | ++ (between 0.1 and 1.0) |  |  |  |  |  |  |  |  |  |  |  | 
2 | CN1Cc2cc(C(C)(C)C)cc(C(C)(C)C)c2[O][Sn]2([O]c3c(cc(C(C)(C)C)cc3C(C)(C)C)C1)[O]c1c(cc(C(C)(C)C)cc1C(C)(C)C)CN(C)Cc1cc(C(C)(C)C)cc(C(C)(C)C)c1[O]2 | good (If there was no visible change within an hour, such as discoloration or melting into droplets due to hygroscopicity, then the stability of the compound was considered good) | 2.4 | 3.8 | yes | ++ (between 0.1 and 1.0) | +++ (higher than 1.0 mol/L) | +++ (higher than 1.0 mol/L) | +++ (higher than 1.0 mol/L) |  |  |  |  |  |  |  |  |  |  |  | 
3 | C1=NCC[O][Sn]2([O]CCN=Cc3ccccc3[O]2)[O]c2ccccc21 (stereo not drawn) | good (If there was no visible change within an hour, such as discoloration or melting into droplets due to hygroscopicity, then the stability of the compound was considered good) | 12.3 | 6.3 | yes | +- (less than 0.01 mol/L) | +- (less than 0.01 mol/L) | + (between 0.01 and 0.1 mol/L) | + (between 0.01 and 0.1 mol/L) |  |  |  |  |  |  |  |  |  |  |  | 
4 | CN(C)CC[O][Sn]([O]CCN(C)C)([O]C(C)(C)C)[O]C(C)(C)C [(DMAE)2Sn(OtBu)2, reference compound] |  |  |  |  |  |  |  |  | instantly leads to the decomposition | rather hygroscopic | change their appearance within half an hour | the same as for no catalyst | 410 s | 185 s | 2580 s | 750 s | 230 s | 150 s | 540 s | 280 s
